BindingDB's records for doi:10.1016/j.bmcl.2004.12.084 (Novo Nordisk, 2005)

Biological target: Peroxisome proliferator-activated receptor gamma (Homo sapiens) (UniProt P37231)
Experiment: Effective concentration for human peroxisome proliferator-activated receptor gamma

EC50 [µM] | SMILES
14 | CCO[C@@H](Cc1ccc(OCc2ccc(COc3ccc(C[C@H](OCC)C(=O)O)cc3)cc2)cc1)C(=O)O [(S)-3-(4-{4-[4-((S)-2-Carboxy-2-ethoxy-ethyl)-phenoxymethyl]-benzyloxy}-phenyl)-2-ethoxy-propionic acid]
15 | CCO[C@@H](Cc1ccc(O/C=C\Oc2ccc(C[C@@H](OCC)C(=O)O)cc2)cc1)C(=O)O [(S)-3-(4-{(Z)-2-[4-((R)-2-Carboxy-2-ethoxy-ethyl)-phenoxy]-vinyloxy}-phenyl)-2-ethoxy-propionic acid]
0.6 | CCO[C@@H](Cc1ccc(OC/C=C(/C)C#Cc2ccccc2)cc1)C(=O)O [(S)-2-Ethoxy-3-[4-((Z)-3-methyl-5-phenyl-pent-2-en-4-ynyloxy)-phenyl]-propionic acid]
